Active and inactive are the calls of the source.
Assays:
Lectin (Glycine max) [1] = molecular target: Lectin (Glycine max) (UniProt P05046); assay: Binding affinity to soybean lectin assessed as compound-protein complex formation incubated for 30 mins followed by UV irradiation by SDS-PAGE based photoaffinity labeling
[2] = molecular target: T1, Lectin (Erythrina crista-galli) (UniProt P83410); assay: Binding affinity to Erythrina cristagalli lectin assessed as compound-protein complex formation incubated for 30 mins followed by UV irradiation by SDS-PAGE based photoaffinity labeling in presence of lactose
T1 sequence (whole entry): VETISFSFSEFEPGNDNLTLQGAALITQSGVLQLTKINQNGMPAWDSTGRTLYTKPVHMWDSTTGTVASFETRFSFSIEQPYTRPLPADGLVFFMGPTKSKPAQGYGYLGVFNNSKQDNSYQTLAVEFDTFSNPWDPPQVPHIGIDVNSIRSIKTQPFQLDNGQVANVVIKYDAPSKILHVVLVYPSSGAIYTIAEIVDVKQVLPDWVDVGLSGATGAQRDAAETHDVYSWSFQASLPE

[3] = molecular target: T1, Lectin (Erythrina crista-galli); assay: Binding affinity to Erythrina cristagalli lectin assessed as compound-protein complex formation incubated for 30 mins followed by UV irradiation by SDS-PAGE based photoaffinity labeling
Lectin (Glycine max) [4] = molecular target: Lectin (Glycine max) (UniProt P05046); assay: Binding affinity to soybean lectin assessed as compound-protein complex formation incubated for 30 mins followed by UV irradiation by SDS-PAGE based photoaffinity labeling in presence of lactose

Measured: Activity

Lectin (Glycine max), sequence (P05046 whole entry): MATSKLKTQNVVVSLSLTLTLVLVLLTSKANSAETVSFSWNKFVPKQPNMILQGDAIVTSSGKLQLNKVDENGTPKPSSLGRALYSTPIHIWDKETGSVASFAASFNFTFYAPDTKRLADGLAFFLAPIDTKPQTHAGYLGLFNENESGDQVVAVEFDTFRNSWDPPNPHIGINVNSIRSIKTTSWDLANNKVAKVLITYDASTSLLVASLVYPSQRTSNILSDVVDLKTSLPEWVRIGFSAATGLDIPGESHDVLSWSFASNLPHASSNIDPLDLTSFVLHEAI

O=C(CCCC[C@@H]1SC[C@H]2NC(=O)N[C@@H]12)NCCOCCOCCOc1cc(C2(C(F)(F)F)N=N2)ccc1CO/N=C/[C@@H](O)[C@@H](O)[C@H](O[C@@H]1O[C@H](CO)[C@H](O)[C@H](O)[C@H]1O)[C@H](O)CO
active: Lectin (Glycine max) [1] | [2] | [3] | Lectin (Glycine max) [4]
